Source: PubChem BioAssay AID2060900 (Molecular Pharmacology Branch, DTP, NCI, 2025)
Where “and” joins values, the source holds several entries; their conditions need not be identical. Identical values can stand only once.

Test system: 521955-158-R2-J5-PDC complex spheroids, viability
Assay: Anticancer human tumor 521955-158-R2-J5-PDC patient-derived pancreatic carcinoma cell line growth inhibition [RAS]
Conditions: for viability, T/C: stronger effect = lower value; active = viability on the fitted dose curve at most 10% of control; inactive = the rest
Method in brief: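 Multi-cell-type spheroids: tumor cells plus HUVEC endothelial cells and mesenchymal stem cells. RAS-pathway inhibitors were combined with targeted agents, each dosed in half-log steps down from clinical Cmax, or from 10 microM when Cmax was unknown.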

[1] = curve of first compound, second compound 0.0316 µM
[2] = curve of first compound, second compound 0.1 µM
[3] = curve of first compound, second compound 0.316 µM
[4] = curve of first compound, second compound 1 µM
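Note: compound exposure lasted seven days before the viability read.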
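Throughout, for viability, T/C: spheroids also contain HUVEC endothelial cells and mesenchymal stem cells as stroma.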

C=CC(=O)Nc1cc(Nc2nccc(-c3cn(C)c4ccccc34)n2)c(OC)cc1N(C)CCN(C)C + C=CC(=O)N1CCN(c2nc(OCC3CCCN3C)nc3c(F)c(-c4nc(N)cc(C)c4C(F)(F)F)c(Cl)cc23)C(C)C1
> 1000 nM: IC50 [1]
970 nM: IC50 (curve of first compound, second compound 0.00316 µM)
636 nM: IC50 [3]
757 nM: IC50 [2] | IC50 [4]
898 nM: IC50 (curve of first compound, second compound 0.01 µM)
inactive: viability, T/C (second compound 0.00316 µM, first compound 0.00316 µM) 106% | viability, T/C (second compound 0.00316 µM, first compound 0.01 µM) 78.6% | viability, T/C (second compound 0.00316 µM, first compound 0.0316 µM) 90.5% | viability, T/C (second compound 0.00316 µM, first compound 0.1 µM) 81.2% | viability, T/C (second compound 0.00316 µM, first compound 0.316 µM) 86.4% | viability, T/C (second compound 0.00316 µM, first compound 1 µM) 48.9% | viability, T/C (second compound 0.01 µM, first compound 0.00316 µM) 87.8% | viability, T/C (second compound 0.01 µM, first compound 0.01 µM) 63.4% | viability, T/C (second compound 0.01 µM, first compound 0.0316 µM) 77.8% | viability, T/C (second compound 0.01 µM, first compound 0.1 µM) 108% | viability, T/C (second compound 0.01 µM, first compound 0.316 µM) 74.1% | viability, T/C (second compound 0.01 µM, first compound 1 µM) 47.5% | viability, T/C (second compound 0.0316 µM, first compound 0.00316 µM) 80.1% | viability, T/C (second compound 0.0316 µM, first compound 0.01 µM) 63.5% | viability, T/C (second compound 0.0316 µM, first compound 0.0316 µM) 96.5% | viability, T/C (second compound 0.0316 µM, first compound 0.1 µM) 107% | viability, T/C (second compound 0.0316 µM, first compound 0.316 µM) 68.1% | viability, T/C (second compound 0.0316 µM, first compound 1 µM) 50.4% | viability, T/C (second compound 0.1 µM, first compound 0.00316 µM) 68.1% | viability, T/C (second compound 0.1 µM, first compound 0.01 µM) 81.4% | viability, T/C (second compound 0.1 µM, first compound 0.0316 µM) 74.8% | viability, T/C (second compound 0.1 µM, first compound 0.1 µM) 85.3% | viability, T/C (second compound 0.1 µM, first compound 0.316 µM) 73.6% | viability, T/C (second compound 0.1 µM, first compound 1 µM) 42.2% | viability, T/C (second compound 0.316 µM, first compound 0.00316 µM) 121% | viability, T/C (second compound 0.316 µM, first compound 0.01 µM) 82.2% | viability, T/C (second compound 0.316 µM, first compound 0.0316 µM) 95.9% | viability, T/C (second compound 0.316 µM, first compound 0.1 µM) 70.1% | viability, T/C (second compound 0.316 µM, first compound 0.316 µM) 67.8% | viability, T/C (second compound 0.316 µM, first compound 1 µM) 39% | viability, T/C (second compound 1 µM, first compound 0.00316 µM) 106% | viability, T/C (second compound 1 µM, first compound 0.01 µM) 72.8% | viability, T/C (second compound 1 µM, first compound 0.0316 µM) 78.7% | viability, T/C (second compound 1 µM, first compound 0.1 µM) 73.9% | viability, T/C (second compound 1 µM, first compound 0.316 µM) 64% | viability, T/C (second compound 1 µM, first compound 1 µM) 42.1%

CC(Nc1ccc2c(c1)OCCn1cc(N3C(=O)OCC3C(F)F)nc1-2)C(N)=O (stereo unspecified)
136 nM [middle of 4 runs]: IC50 (curve of compound)
inactive: viability, T/C (compound 0.1 µM) 57.5% [middle of 4 runs] | viability, T/C (compound 0.316 µM) 41.1% [middle of 4 runs] | viability, T/C (compound 1 µM) 31% [middle of 4 runs] | viability, T/C (compound 10 µM) 23.5% [middle of 4 runs]

NC1c2ccccc2OC12CCN(c1cnc3c(N4CCCc5ncccc54)n[nH]c3n1)CC2 (stereo unspecified)
inactive: viability, T/C (compound 0.0316 µM) 67.5% [middle of 4 runs] | viability, T/C (compound 0.1 µM) 58.8% [middle of 4 runs] | viability, T/C (compound 0.316 µM) 55.2% [middle of 4 runs] | viability, T/C (compound 1 µM) 53.2% [middle of 4 runs] | viability, T/C (compound 3.16 µM) 54.8% [middle of 4 runs] | viability, T/C (compound 10 µM) 61.6% [middle of 4 runs]
> 10000 nM and 1720 nM: IC50 (curve of compound)

CCc1c2c(nc3ccc(O)cc13)-c1cc3c(c(=O)n1C2)COC(=O)[C@]3(O)CC + C#Cc1c(F)ccc2cc(O)cc(-c3ncc4c(N5CC6CCC(C5)N6)nc(OCC56CCCN5CC(F)C6)nc4c3F)c12
inactive: viability, T/C (second compound 0.0316 µM, first compound 0.000949 µM) 68.1% | viability, T/C (second compound 0.0316 µM, first compound 0.003 µM) 40.9% | viability, T/C (second compound 0.0316 µM, first compound 0.00949 µM) 35.7% | viability, T/C (second compound 0.0316 µM, first compound 0.03 µM) 20.7% | viability, T/C (second compound 0.0316 µM, first compound 0.0949 µM) 15.3% | viability, T/C (second compound 0.0316 µM, first compound 0.3 µM) 9.62% | viability, T/C (second compound 0.1 µM, first compound 0.000949 µM) 43.4% | viability, T/C (second compound 0.1 µM, first compound 0.003 µM) 34.2% | viability, T/C (second compound 0.1 µM, first compound 0.00949 µM) 26.9% | viability, T/C (second compound 0.1 µM, first compound 0.03 µM) 22.5% | viability, T/C (second compound 0.1 µM, first compound 0.0949 µM) 11.4% | viability, T/C (second compound 0.1 µM, first compound 0.3 µM) 12.5% | viability, T/C (second compound 0.316 µM, first compound 0.000949 µM) 51.9% | viability, T/C (second compound 0.316 µM, first compound 0.003 µM) 39.5% | viability, T/C (second compound 0.316 µM, first compound 0.00949 µM) 23.8% | viability, T/C (second compound 0.316 µM, first compound 0.03 µM) 18.3% | viability, T/C (second compound 0.316 µM, first compound 0.0949 µM) 14.3% | viability, T/C (second compound 1 µM, first compound 0.000949 µM) 41.1% | viability, T/C (second compound 1 µM, first compound 0.003 µM) 36.1% | viability, T/C (second compound 1 µM, first compound 0.00949 µM) 18.4% | viability, T/C (second compound 1 µM, first compound 0.03 µM) 16.6% | viability, T/C (second compound 1 µM, first compound 0.0949 µM) 11.3% | viability, T/C (second compound 1 µM, first compound 0.3 µM) 10.6% | viability, T/C (second compound 3.16 µM, first compound 0.000949 µM) 41.4% | viability, T/C (second compound 3.16 µM, first compound 0.003 µM) 34.6% | viability, T/C (second compound 3.16 µM, first compound 0.00949 µM) 24.7% | viability, T/C (second compound 3.16 µM, first compound 0.03 µM) 15.8% | viability, T/C (second compound 3.16 µM, first compound 0.0949 µM) 12.8% | viability, T/C (second compound 10 µM, first compound 0.000949 µM) 30% | viability, T/C (second compound 10 µM, first compound 0.003 µM) 23% | viability, T/C (second compound 10 µM, first compound 0.00949 µM) 16.8% | viability, T/C (second compound 10 µM, first compound 0.03 µM) 15.5% | viability, T/C (second compound 10 µM, first compound 0.0949 µM) 11.2% | viability, T/C (second compound 10 µM, first compound 0.3 µM) 11.8%
2.36 nM: IC50 [1]
active: viability, T/C (second compound 0.316 µM, first compound 0.3 µM) 8.89% | viability, T/C (second compound 3.16 µM, first compound 0.3 µM) 5.72%
< 0.949 nM: IC50 [2] | IC50 [4] | IC50 (curve of first compound, second compound 3.16 µM) | IC50 (curve of first compound, second compound 10 µM)
1.13 nM: IC50 [3]
